Data published in patent publication US10213449B2, “Compositions and methods for treating medulloblastoma” (The Board of Trustees of the Leland Stanford Junior …, priority 2016, dated 2019).
“Also recorded” adds a separate entry of the source.

Assays:
[1] = system: Brd4 occupancy at Gli1 and Gli2 promoters; assay: Brd4 ChIP-qPCR in NIH3T3s stimulated with SHH; format: cell-based, mouse
Method: It was therefore investigated whether CK2 regulates Brd4-mediated transactivation of the Gli promoters. Chromatin immunoprecipitation (ChIP) was performed in NIH3T3s stimulated with SHH using anti-Brd4 antibodies, followed by quantitative PCR (qPCR) of regions flanking the transcription start sites within the Gli1 and Gli2 promoters.
Wildtype CD1-Elite (Charles River strain 482) P7 mice were randomized to control or treatment groups then given two injections of DMSO (control) or TBB (30 mg/kg) q12h×2. Mice were sacrificed and GNPs were isolated as described in “GNP isolation”. Chomatin immunoprecipitation was performed as previously described. GNPs were cross-linked in 1% formaldehyde for 10 minutes at RT then fixation was stopped by adding 2.5M glycine for 10 minutes. Samples were washed and stored at −80 until all samples were collected. Crosslinked cells were later thawed on ice, incubated in chilled RIPA for 10 min and sonicated 7×15 min. To prepare blocking beads, 60 uL/sample of protein G beads (Roche 11719416001) were incubated with 5% BSA on a rocker at 4 degrees for at least 1 h. […] ChIP and input DNA was quantified using Qubit DS DNA HS assay as per manufacturer's protocol (ThermoFisher Q32851). […] Library was quantified via Qubit DS DNA HS assay and library quality was determined using an Agilent 2100 Bioanalyzer. […]

[2] = system: MB cell lines (MB55, MB21, MB53); assay: Cell viability of MB cell lines (CellTiter-Glo); format: cell-based, mouse; settings: multiple MB cell lines derived from Ptch1+/− and Ptch1+/−; Trp53−/− mice
Method: Ptch+/−MB cell lines MB55 and MB21 were kindly gifted from Dr. Rosalind Segal (Dana Farber Cancer Institute, Harvard Medical School) and Ptch^+/−; p53^−/− MB53 cells were kindly gifted from Charles Rudin (Memorial Sloan-Kettering Cancer Center). All cell lines were validated for high Gli activity. Cell viability was assessed using CellTiter-Glo (G7573, Promega, WI, USA) according to the manufacturers instructions. Cells were plated at 10000 cells/well in 96-well plates, treated with drugs as indicated and data was collected on a TECAN Infinite 200 plate reader.

[3] = system: Ptch+/−; Trp53−/− MB flank allografts; assay: Flank allograft study, Ptch+/−; Trp53−/− MB; format: in vivo, mouse; settings: TBB 30 mg/kg IP BID; effect as early as 3 days after initiating treatment; vs vehicle control
Method: (§1) In vivo efficacy studies were performed in accordance with protocols approved by the Institutional Animal Care and Use Committee at Stanford University. SmoWT-MB and Smo[…]-MB cells isolated from either parental SmoWT or Smo[…] mouse Ptch^+/-; p53^-/- MB hind-flank allografts were kindly provided by Charles Rudin (Memorial Sloan-Kettering Cancer Center). Ptch+/-; Tpr53-/-, or, Ptch+/-; Tpr53-/-; Smo[…] MB cells were mixed 1:1 with matrigel and 10^7 cells were injected into both flanks of a Nu/Nu mouse. Once tumors reached 225-275 mm^3, mice were randomized to treatment vs. control groups. Treatment groups received 30 mg/kg IP BID of TBB (reconstituted in DMSO at 50 ug/uL), or 37.5 mg/kg IP BID of GDC-0449 (reconstituted in DMSO at 62.5 ug/uL). Control mice were treated with an equivalent volume of DMSO. Corn oil was used in all groups to a total volume of 180 uL/injection and all doses were given with a 28 g insulin syringe. Tumors were measured and mice were weighed daily. Once tumors reached 1.5 cm^2 or met institutional euthanasia criteria, mice were sacrificed and tumors were harvested. Growth curves were generated using GraphPad Prism and significance was measured by two-way ANOVA.

[4] = system: Ptch+/−; Tpr53−/−; SmoD477G MB flank allografts; assay: Flank allograft study, SMO inhibitor-resistant MB; format: in vivo, mouse
Method: as §1

- Brd4 occupancy at Gli1 promoter [1]: blocked
- Brd4 occupancy at Gli2 promoter [1]: blocked
Compound: Brc1c(Br)c(Br)c2[nH]nnc2c1Br [TBB, 4,5,6,7-tetrabromo-2H-benzotriazole]
- cell viability [2]: decreased; also recorded: dose dependent tumoricidal effects
- MB flank allograft growth [3]: significant inhibition; also recorded: decreased growth
- tumor growth of SmoD477G MB flank allografts ([4]; TBB 30 mg/kg IP BID or GDC-0449 37.5 mg/kg IP BID vs vehicle control): near-complete cessation of tumor growth; also recorded: significant response
- BrdU incorporation in flank allografts ([4]; following TBB administration, relative to GDC-0449 and control treated mouse): Decreased
